Measured values published in patent US7491819B1 (priority 2004, dated 2009).
Like-named read-outs stand apart in the source and are kept apart here.

Test system: HIV-1 303B
Test: microbe, parasite or virus in culture
Assay type: cell-based
Conditions: for overall antiviral effect of the two-drug combination with Example 19 (in words): classification from combination indices and confidence intervals; for Combination Indices at 50% HIV Inhibition (Confidence Interval) / Combination Indices at 75% HIV Inhibition (Confidence Interval) / Combination Indices at 90% HIV Inhibition (Confidence Interval): in combination with Example 19, 95% CI in parenthesis
Method: Virus and cell lines. The T-cell line, MT-2, was obtained through the AIDS Research and Reference Reagent Program. MT-2 cells were sub-cultured twice a week in RPMI 1640 medium supplemented with 10% fetal bovine serum, 2 mM L-glutamine, and 10 mM HEPES buffer pH 7.5. The HIV-1303B virus is a molecular clone derived from the NL4-3 strain of HIV-1 that was obtained from the NIH AIDS Research and Reference Reagent Program. For combinations with enfuvirtide, the NL36G virus was used. […] Virus stocks were made by transfecting 293T cells with a proviral DNA clone using LipofectAMINE PLUS (Invitrogen), according to the manufacturer's instructions. Three days post-transfection, virus was harvested and passaged once in MT-2 cells before titration in MT-2 cells.
Chemicals. Example 19, atazanavir, didanosine, stavudine, efavirenz, and enfuvirtide (T-20) were synthesized by Bristol-Myers Squibb using published or known reactions. […] Tenofovir was tested as tenofovir disopoxil fumarate. Zidovudine and zalcitabine were purchased from Sigma, and emtricitabine from Moravek Biochemicals.
Drug Susceptibility and Cytotoxicity Assays. For drug susceptibility assays, MT-2 cells were infected with HIV-1 303B (or NL36G), at an MOI of 0.001, and seeded into 96-well microtiter plates (2.5×10^5 cells/ml) containing serial dilutions of test compounds. […] Each drug ratio consisted of an array of 3-fold serial dilutions, and was performed with eight or more replicas on separate multi-well plates. HIV infected cells were incubated at 37° C. in 5% CO2, and on day five post-infection, the extent of virus replication was measured by determining cell viability using the CellTiter 96 Aqueous Non-Radioactive Cell Proliferation Assay (Promega). […] Cytotoxicity assays were performed in parallel with the combination experiments. Here, uninfected cells were exposed to the same drug combinations, and assayed after five days for cell viability using the MTS assay.
Analysis of Drug Combination Effects. For determination of combination index (CI) values, drugs were diluted in a fixed ratio and multiple ratios were analyzed. The drug serial dilutions spanned a range of concentrations near the EC50 value of each compound, so that equivalent antiviral activities could be compared. The normalized responses from each therapy are fit to the four-parameter logistic model with a common minimum and maximum across all therapies. Conceptually, this equation can be written as
In this equation, Fa stands for “fraction affected,” and represents the fraction of the viral load that has been inactivated. […] The EC50, represented by the Ci in the above equation, is the drug concentration that is expected to reduce the amount of virus by 50%, and the Bi are the parameters that reflects the slope of the concentration-response curve. For this assay, A is the bottom plateau common to all curves, D is the common top plateau, Bj is the “slope” parameter for the jth therapy, and Cj is the concentration that produces an effect equal to the average of A and D for the jth therapy. Therapies 1 and 2 correspond to mono therapies 1 and 2, respectively. Therapies 3, 4, and 5 correspond to the three combination therapies. EC50 values for each drug were determined from the single drug experiments, using the above equation. The equation was fit using a nonlinear regression routine (Proc Nlin) in PC SAS version 8.2 (SAS Institute Inc.).
To assess antiviral effects of different drug combination treatments, combination indices (CIs) were calculated according to Chou and Rideout. The combination index was computed as
In this equation [Dm]1 and [Dm]2 are the concentrations of drugs that would individually produce a specific level of effect, while [D]1 and [D]2 are the concentrations of drugs in combination that would produce the same level of effect.
Theoretically, additivity is implied if the CI is equal to one, synergy if the CI is less than one, and antagonism if the CI is greater than one.

[1] = Human immunodeficiency virus 1, MT2, 120 h
[2] = EC50 ratio Example 19:comparator 1:1
[3] = EC50 ratio Example 19:comparator 1:2.5
[4] = EC50 ratio Example 19:comparator 2.5:1

SMILES | EC50 [1] | overall antiviral effect of the two-drug combination with Example 19 (in words) | Combination Indices at 50% HIV Inhibition (Confidence Interval) [2] | Combination Indices at 75% HIV Inhibition (Confidence Interval) [2] | Combination Indices at 90% HIV Inhibition (Confidence Interval) [2] | Combination Indices at 50% HIV Inhibition (Confidence Interval) [3] | Combination Indices at 75% HIV Inhibition (Confidence Interval) [3] | Combination Indices at 90% HIV Inhibition (Confidence Interval) [3] | Combination Indices at 50% HIV Inhibition (Confidence Interval) [4] | Combination Indices at 75% HIV Inhibition (Confidence Interval) [4] | Combination Indices at 90% HIV Inhibition (Confidence Interval) [4] | overall antiviral effect of the two-drug combination with Example 19 (in words) (listed as nevaripine) | EC50 (single drug, MT-2 cells, MOI 0.001, day five, MTS cell viability, read-out: EC50)
CC(C)(C)NC(=O)[C@@H]1CN(Cc2cccnc2)CCN1C[C@@H](O)C[C@@H](Cc1ccccc1)C(=O)N[C@H]1c2ccccc2C[C@H]1O [Indinavir, indinavir] | 26 nM | additive relationship with Example 19 cannot be ruled out | 0.86 (0.80, 0.92) | 0.71 (0.62, 0.81) | 0.60 (0.46, 0.73) | 0.92 (0.84, 0.99) | 0.84 (0.76, 0.92) | 0.77 (0.66, 0.89) | 0.94 (0.87, 1.02) | 0.79 (0.71, 0.87) | 0.67 (0.57, 0.77) |  | 
Cc1cccc(C)c1OCC(=O)N[C@@H](Cc1ccccc1)[C@@H](O)C[C@H](Cc1ccccc1)NC(=O)[C@H](C(C)C)N1CCCNC1=O [Lopinavir, lopinavir] | 17 nM | additive relationship with Example 19 cannot be ruled out | 0.74 (0.67, 0.82) | 0.77 (0.66, 0.88) |  | 0.77 (0.66, 0.88) | 0.56 (0.36, 0.75) | 0.41 (0.19, 0.64) | 0.76 (0.69, 0.83) | 0.62 (0.55, 0.70) | 0.54 (0.47, 0.61) |  | 
Cc1c(O)cccc1C(=O)N[C@@H](CSc1ccccc1)[C@H](O)CN1C[C@H]2CCCC[C@H]2C[C@H]1C(=O)NC(C)(C)C [Nelfinavir, nelfinavir] | 22 nM | synergistic-additive effect | 0.79 (0.73, 0.86) | 0.75 (0.67, 0.82) | 0.71 (0.56, 0.84) | 0.97 (0.89, 1.06) | 0.87 (0.79, 0.95) | 0.78 (0.68, 0.88) | 1.09 (1.00, 1.18) | 0.98 (0.89, 1.08) | 0.90 (0.76, 1.03) |  | 
Cc1ccnc2c1NC(=O)c1cccnc1N2C1CC1 [Nevirapine, nevirapine] | 95 nM | synergism at most effective concentrations and molar ratios | 0.72 (0.62, 0.82) | 0.69 (0.55, 0.83) | 0.66 (0.46, 0.87) | 0.76 (0.64, 0.87) | 0.81 (0.64, 0.97) | 0.87 (0.59, 1.15) | 0.73 (0.62, 0.83) | 0.68 (0.55, 0.81) | 0.64 (0.45, 0.84) | strong synergistic effects | 
CC(C)c1nc(CN(C)C(=O)N[C@H](C(=O)N[C@@H](Cc2ccccc2)C[C@H](O)[C@H](Cc2ccccc2)NC(=O)OCc2cncs2)C(C)C)cs1 [Ritonavir, ritonavir] | 48 nM | additive relationship with Example 19 cannot be ruled out | 0.80 (0.67, 0.93) | 0.57 (0.41, 0.73) | 0.44 (0.23, 0.65) | 0.73 (0.59, 0.88) | 0.64 (0.48, 0.80) | 0.61 (0.38, 0.85) | 0.92 (0.72, 1.11) | 0.72 (0.50, 0.93) | 0.59 (0.32, 0.87) |  | 
CC(C)(C)NC(=O)[C@@H]1C[C@@H]2CCCC[C@@H]2CN1C[C@@H](O)[C@H](Cc1ccccc1)NC(=O)[C@H](CC(N)=O)NC(=O)c1ccc2ccccc2n1 [Saquinavir, saquinavir] | 11 nM | confidence interval is below one at all concentrations and effective levels | 0.77 (0.70, 0.84) | 0.67 (0.58, 0.75) | 0.58 (0.47, 0.69) | 0.43 (0.38, 0.48) | 0.51 (0.42, 0.59) | 0.59 (0.44, 0.74) | 0.81 (0.72, 0.89) | 0.77 (0.66, 0.89) | 0.74 (0.57, 0.91) |  | 
Cc1cn([C@H]2C=C[C@@H](CO)O2)c(=O)[nH]c1=O [Stavudine, stavudine] | 241 nM | synergistic | 0.52 (0.43, 0.61) | 0.46 (0.36, 0.56) | 0.42 (0.26, 0.57) | 0.60 (0.48, 0.71) | 0.60 (0.46, 0.74) | 0.61 (0.40, 0.83) | 0.70 (0.57, 0.84) | 0.63 (0.48, 0.79) | 0.58 (0.37, 0.81) |  | 
C[C@H](Cn1cnc2c(N)ncnc21)OCP(=O)(O)O [Tenofovir, tenofovir] |  | synergistic to additive | 0.66 (0.57, 0.75) | 0.54 (0.45, 0.62) | 0.43 (0.33, 0.53) | 0.68 (0.59, 0.77) | 0.60 (0.48, 0.72) | 0.52 (0.36, 0.69) | 0.90 (0.77, 1.04) | 0.84 (0.67, 1.01) | 0.79 (0.55, 1.03) |  | 18 nM
Nc1ccn([C@H]2CC[C@@H](CO)O2)c(=O)n1 [Zalcitabine, zalcitabine] | 124 nM | synergistic to additive | 0.61 (0.48, 0.73) | 0.56 (0.39, 0.73) | 0.53 (0.28, 0.79) | 0.55 (0.44, 0.66) | 0.40 (0.31, 0.49) | 0.30 (0.18, 0.42) | 0.80 (0.62, 0.97) | 0.82 (0.58, 1.07) | 0.86 (0.46, 1.26) |  | 
